Data published in patent publication US12187729B2, “Compounds having PDE9A inhibitory activity, and pharmaceutical uses thereof” (KOREA RESEARCH INSTITUTE OF CHEMICAL TECHNOLOGY, priority 2018, dated 2025).

The molecules below were run against PDE9A (Homo sapiens (Human), UniProt O76083) (assay: PDE9A inhibitory activity, fluorescence polarization assay (IMAP-FP screening express kit)). Settings: enzyme PDE9A 5 ng/ml, Fl-cGMP substrate 100 nM, room temperature 1 hour.
Assay type: biochemical
Procedure: The inhibitory activity of the representative compounds according to the present invention against phosphodiesterase 9A was tested based on the polarization assay (IMAP-FP screening express kit) provided by MDS (MDS Analytical Technologies, Sunyvale, CA, USA). As a buffer solution, a reaction solution (a reaction solution containing 0.01% Tween 20 provided by MDS was diluted 5 times, then 5 mM DTT is added) and a polarization detection solution (binding solution A and B provided by MDS were mixed at a ratio of 3:1 and IMAP binding reagent 1/600 was added) were prepared. 100 μM of the substrate (Fl-cGMP substrate; MDS) and 3.6 μg/ml of the enzyme PDE9A (ab54113; abeam) were prepared. 3.6 μg/ml PDE9A and 100 μM substrate were diluted to 20 ng/ml (final reaction concentration: 5 ng/ml) and 400 nM (final reaction concentration: 100 nM), respectively. The buffer solution used for all dilution and preparation processes was 1× reaction solution with 1 mM DTT added, and the polarization detection solution was used to induce polarization at the end.
The prepared samples were dispensed on black microplates (Multiwell 384 well plates, #3573, Corning Life Sciences, Lowell, MA, USA) using a 16-channel pipette (multi 16-channel, Finnpipette, Thermo Scientific, Essex, UK). The total reaction volume per well is 20 μl. At this time, 10 μl of 2% DMSO, 5 μl of substrate solution, and 5 μl of reaction solution were used as a negative control, and 10 μl of 2% DMSO, 5 μl of substrate solution, and 5 μl of PDE9A solution were used as a positive control. As the experimental group, 10 μl of the compound prepared in Example, 5 μl of the substrate solution, and 5 μl of the PDE9A solution were used. After pretreatment between the compound and the enzyme was performed for about […] before the enzyme-substrate reaction, 5 μl of cGMP was added to induce the enzyme reaction. During the reaction, each compound, enzyme, and substrate occupied 50%, 25%, and 25% of the total volume, respectively, and they were prepared at high concentrations of 2, 4, and 4 times, respectively, immediately before addition. After the enzymatic reaction, it was shaken lightly for 1 minute and the enzyme reaction was induced at room temperature for 1 hour. Then, 60 μl of a polarization detection solution prepared in advance was added to induce polarization.
Nanoparticles composed of trivalent metal ions are mixed in the fluorescence detection solution, which combines with phosphoric acid expose by enzymatic reaction to increase the molecular weight and induce polarization. After leaving for 2 hours at room temperature, the polarization (Fluorescence Polarization, FP) value was measured using a multilabel counter (Envision, PerkinElmer, Turku, Finland) (emission wavelength: P-535 nm, S-535 nm, excitation wavelength: 480 nm), and the result was expressed as an IC50 value, which is the concentration of the compound that inhibited PDE9A by 50% in vitro (Table 2).

Chain of PDE9A (O76083 whole entry): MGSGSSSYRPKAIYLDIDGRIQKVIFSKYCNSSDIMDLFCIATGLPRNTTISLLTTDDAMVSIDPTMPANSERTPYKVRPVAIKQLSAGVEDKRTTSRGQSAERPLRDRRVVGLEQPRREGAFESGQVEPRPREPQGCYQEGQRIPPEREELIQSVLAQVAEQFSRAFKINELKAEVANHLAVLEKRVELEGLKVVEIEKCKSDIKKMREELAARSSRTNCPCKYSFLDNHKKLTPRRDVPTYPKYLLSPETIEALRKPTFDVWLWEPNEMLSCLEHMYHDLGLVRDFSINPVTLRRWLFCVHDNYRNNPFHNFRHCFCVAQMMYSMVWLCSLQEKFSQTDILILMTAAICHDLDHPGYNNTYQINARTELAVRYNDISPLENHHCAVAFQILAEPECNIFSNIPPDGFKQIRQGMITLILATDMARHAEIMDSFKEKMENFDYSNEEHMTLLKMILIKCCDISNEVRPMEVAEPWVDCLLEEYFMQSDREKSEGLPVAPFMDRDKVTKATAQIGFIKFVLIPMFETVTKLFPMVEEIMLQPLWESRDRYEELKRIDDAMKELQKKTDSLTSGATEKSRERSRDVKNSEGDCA

Row | Compound | IC50
1 | O=C(CSc1nc2c(cnn2C2CCSCC2)c(=O)[nH]1)Nc1nnc(Br)s1 [Example 32, N-(5-bromo-1,3,4-thiadiazol-2-yl)-2-((4-oxo-1-(tetrahydro-2H-thiopyran-4-yl)-4,5-dihydro-1H-pyrazolo[3,4-d]pyrimidin-6-yl)thio)acetamide] | 0.6 nM
2 | O=C(CSc1nc2c(cnn2C2CCOCC2)c(=O)[nH]1)Nc1nnc(Br)s1 [Example 33, N-(5-bromo-1,3,4-thiadiazol-2-yl)-2-((4-oxo-1-(tetrahydro-2H-pyran-4-yl)-4,5-dihydro-1H-pyrazolo[3,4-d]pyrimidin-6-yl)thio)acetamide] | 0.4 nM
3 | CCSc1nnc(NC(=O)CSc2nc3c(cnn3C3CCCCC3)c(=O)[nH]2)s1 [Example 34, N-(5-(ethylthio)-1,3,4-thiadiazol-2-yl)-2-((4-oxo-1-cyclohexyl-4,5-dihydro-1H-pyrazolo[3,4-d]pyrimidin-6-yl)thio)acetamide] | 1 nM
4 | O=C(CSc1nc2c(cnn2C2CCCCC2)c(=O)[nH]1)Nc1nnc(Br)s1 [Example 35, N-(5-bromo-1,3,4-thiadiazol-2-yl)-2-((4-oxo-1-cyclohexyl-4,5-dihydro-1H-pyrazolo[3,4-d]pyrimidin-6-yl)thio)acetamide] | 1 nM
5 | CCSc1nnc(NC(=O)CSc2nc3c(cnn3C(C)C)c(=O)[nH]2)s1 [Example 37, N-(5-(ethylthio)-1,3,4-thiadiazol-2-yl)-2-((1-isopropyl-4-oxo-4,5-dihydro-1H-pyrazolo[3,4-d]pyrimidin-6-yl)thio)acetamide] | 1 nM
6 | CC(C)n1ncc2c(=O)[nH]c(SCC(=O)Nc3nnc(Br)s3)nc21 [Example 38, N-(5-bromo-1,3,4-thiadiazol-2-yl)-2-((1-isopropyl-4-oxo-4,5-dihydro-1H-pyrazolo[3,4-d]pyrimidin-6-yl)thio)acetamide] | 3 nM
7 | CC(C)n1ncc2c(=O)[nH]c(SCC(=O)Nc3nnc(Cl)s3)nc21 [Example 43, N-(5-chloro-1,3,4-thiadiazol-2-yl)-2-((1-isopropyl-4-oxo-4.5-dihydro-1H-pyrazolo[3,4-d]pyrimidin-6-yl)thio)acetamide] | 3 nM

Next, values leading:

Row | IC50 | Compound
8 | 0.7 nM | O=C(CSc1nc2c(cnn2C2CCOCC2)c(=O)[nH]1)Nc1nnc(Cl)s1 [Example 36, N-(5-chloro-1,3,4-thiadiazol-2-yl)-2-((4-oxo-1-(tetrahydro-2H-pyran-4-yl)-4,5-dihydro-1H-pyrazolo[3,4-d]pyrimidin-6-yl)thio)acetamide]
9 | 1 nM | O=C(CSc1nc2c(cnn2C2CCSCC2)c(=O)[nH]1)Nc1nnc(Cl)s1 [Example 39, N-(5-chloro-1,3,4-thiadiazol-2-yl)-2-((4-oxo-1-(tetrahydro-2H-thiopyran-4-yl)-4,5-dihydro-1H-pyrazolo[3,4-d]pyrimidin-6-yl)thio)acetamide]
10 | 39 nM | CCSc1nnc(NC(=O)CSc2nc3c(cnn3C3CC3)c(=O)[nH]2)s1 [Example 40, N-(5-(ethylthio)-1,3,4-thiadiazol-2-yl)-2-((1-cyclopropyl-4-oxo-4,5-dihydro-1H-pyrazolo[3,4-d]pyrimidin-6-yl)thio)acetamide]
11 | 28 nM | O=C(CSc1nc2c(cnn2C2CC2)c(=O)[nH]1)Nc1nnc(Br)s1 [Example 41, N-(5-bromo-1,3,4-thiadiazol-2-yl)-2-((1-cyclopropyl-4-oxo-4,5-dihydro-1H-pyrazolo[3,4-d]pyrimidin-6-yl)thio)acetamide]
12 | 1 nM | O=C(CSc1nc2c(cnn2C2CCCCC2)c(=O)[nH]1)Nc1nnc(Cl)s1 [Example 42, N-(5-chloro-1,3,4-thiadiazol-2-yl)-2-((4-oxo-1-cyclohexyl-4,5-dihydro-1H-pyrazolo[3,4-d]pyrimidin-6-yl)thio)acetamide]
13 | 36 nM | O=C(CSc1nc2c(cnn2C2CC2)c(=O)[nH]1)Nc1nnc(Cl)s1 [Example 44, N-(5-chloro-1,3,4-thiadiazol-2-yl)-2-((1-cyclopropyl-4-oxo-4,5-dihydro-1H-pyrazolo[3,4-d]pyrimidin-6-yl)thio)acetamide]
